Laboratory results published in paper PMC10819888, “Benzimidazole-Based Derivatives as Apoptotic Antiproliferative Agents: Design, Synthesis, Docking, and Mechanistic Studies” (Molecules, 2024).
Like-named read-outs stand apart in the source and are kept apart here.

Tests used:
[1] = system: IGROV1; test: NCI-60 one-dose assay; type: cell-based; conditions: Homo sapiens, IGROV-1, IGROV1 (ovarian cancer), read-out: Cell Inhibition Percent
[2] = system: SF-268; test: NCI-60 one-dose assay; type: cell-based; conditions: Homo sapiens, SF-268 (CNS cancer), read-out: Cell Inhibition Percent
[3] = system: MCF7; test: NCI-60 one-dose assay; type: cell-based; conditions: Homo sapiens, MCF7 (Breast Cancer), read-out: Cell Inhibition Percent
[4] = system: U251; test: NCI-60 one-dose assay; type: cell-based; conditions: Homo sapiens, U-251, U251 (CNS cancer), read-out: Cell Inhibition Percent
[5] = system: MOLT-4; test: NCI-60 one-dose assay; type: cell-based; conditions: Homo sapiens, MOLT-4 (Leukemia), read-out: Cell Inhibition Percent
[6] = system: MALME-3M; test: NCI-60 one-dose assay; type: cell-based; conditions: Homo sapiens, MALME-3M (Melanoma), read-out: Cell Inhibition Percent
[7] = system: HL-60(TB); test: NCI-60 one-dose assay; type: cell-based; conditions: Homo sapiens, HL-60(TB) (Leukemia), read-out: Cell Inhibition Percent
[8] = system: EKVX; test: NCI-60 one-dose assay; type: cell-based; conditions: Homo sapiens, EKVX (Non-Small Cell Lung Cancer), read-out: Cell Inhibition Percent
[9] = system: NCI-H460; test: NCI-60 one-dose assay; type: cell-based; conditions: Homo sapiens, NCI-H460 (Non-Small Cell Lung Cancer), read-out: Cell Inhibition Percent
[10] = system: NCI-H522; test: NCI-60 one-dose assay; type: cell-based; conditions: Homo sapiens, NCI-H522 (Non-Small Cell Lung Cancer), read-out: Cell Inhibition Percent
[11] = system: HCT-116; test: NCI-60 one-dose assay; type: cell-based; conditions: Homo sapiens, HCT-116 (Colon Cancer), read-out: Cell Inhibition Percent
[12] = system: SK-MEL-28; test: NCI-60 one-dose assay; type: cell-based; conditions: Homo sapiens, SK-MEL-28 (Melanoma), read-out: Cell Inhibition Percent
[13] = system: M14; test: NCI-60 one-dose assay; type: cell-based; conditions: Homo sapiens, M14 (Melanoma), read-out: Cell Inhibition Percent
[14] = system: MDA-MB 231; test: NCI-60 one-dose assay; type: cell-based; conditions: Homo sapiens, MDA-MB 231 (Breast Cancer), read-out: Cell Inhibition Percent
[15] = system: UACC-257; test: NCI-60 one-dose assay; type: cell-based; conditions: Homo sapiens, UACC-257 (Melanoma), read-out: Cell Inhibition Percent
[16] = system: RPMI-8226; test: NCI-60 one-dose assay; type: cell-based; conditions: Homo sapiens, RPMI-8226 (Leukemia), read-out: Cell Inhibition Percent
[17] = system: PC-3; test: NCI-60 one-dose assay; type: cell-based; conditions: Homo sapiens, PC-3 (Prostate Cancer), read-out: Cell Inhibition Percent
[18] = system: MDA-MB-435; test: NCI-60 one-dose assay; type: cell-based; conditions: Homo sapiens, MDA-MB-435 (Melanoma), read-out: Cell Inhibition Percent
[19] = system: SF-539; test: NCI-60 one-dose assay; type: cell-based; conditions: Homo sapiens, SF-539 (CNS cancer), read-out: Cell Inhibition Percent
[20] = system: HOP-92; test: NCI-60 one-dose assay; type: cell-based; conditions: Homo sapiens, HOP-92 (Non-Small Cell Lung Cancer), read-out: Cell Inhibition Percent
[21] = system: NCI/ADR-RES; test: NCI-60 one-dose assay; type: cell-based; conditions: Homo sapiens, NCI/ADR-RES (ovarian cancer), read-out: Cell Inhibition Percent
[22] = system: SK-MEL-2; test: NCI-60 one-dose assay; type: cell-based; conditions: Homo sapiens, SK-MEL-2 (Melanoma), read-out: Cell Inhibition Percent
[23] = system: SW-620; test: NCI-60 one-dose assay; type: cell-based; conditions: Homo sapiens, SW-620 (Colon Cancer), read-out: Cell Inhibition Percent
[24] = system: OVCAR-5; test: NCI-60 one-dose assay; type: cell-based; conditions: Homo sapiens, OVCAR-5 (ovarian cancer), read-out: Cell Inhibition Percent
[25] = system: HOP-62; test: NCI-60 one-dose assay; type: cell-based; conditions: Homo sapiens, HOP-62 (Non-Small Cell Lung Cancer), read-out: Cell Inhibition Percent
[26] = system: 786-0; test: NCI-60 one-dose assay; type: cell-based; conditions: Homo sapiens, 786-0 (Renal Cancer), read-out: Cell Inhibition Percent
[27] = system: DU-145; test: NCI-60 one-dose assay; type: cell-based; conditions: Homo sapiens, DU-145 (Prostate Cancer), read-out: Cell Inhibition Percent
[28] = system: SR; test: NCI-60 one-dose assay; type: cell-based; conditions: Homo sapiens, SR (Leukemia), read-out: Cell Inhibition Percent
[29] = system: RXF 393; test: NCI-60 one-dose assay; type: cell-based; conditions: Homo sapiens, RXF 393 (Renal Cancer), read-out: Cell Inhibition Percent
[30] = system: MDA-MB-231; test: NCI-60 five-dose assay; type: cell-based, human; conditions: for GI50 / CC50: Homo sapiens; for GI50: read-out: GI50 Conc. per Cell Line; for CC50: read-out: LC50 (the source's name)
[31] = MDA-MB-231 (Breast Cancer), 48 h

Structure (SMILES)	inhibition at 10 µM [1]	inhibition at 10 µM [2]	inhibition at 10 µM [3]	inhibition at 10 µM [4]	inhibition at 10 µM [5]	inhibition at 10 µM [6]	inhibition at 10 µM [7]	inhibition at 10 µM [8]	inhibition at 10 µM [9]	inhibition at 10 µM [10]	inhibition at 10 µM [11]	inhibition at 10 µM [12]	inhibition at 10 µM [13]	inhibition at 10 µM [14]	inhibition at 10 µM [15]	inhibition at 10 µM [16]	inhibition at 10 µM [17]	inhibition at 10 µM [18]	inhibition at 10 µM [19]	inhibition at 10 µM [20]	other results
COc1cc(/C=N/NC(=O)c2ccc3[nH]c(-c4ccc(Cl)cc4)nc3c2)cc(OC)c1OC [Compound 4h, N′-(3,4,5-Trimethoxybenzylidene)-2-(4-chlorophenyl)-1H-benzimidazole-5 carbohydrazide]	31.6%	20.3%	87.9%	46.8%	58.5%	71.6%	55.1%	4.23%	17.2%	21.7%	63.8%	53.5%	58%	0%	45.6%	80.1%	40.1%	36%	56.2%	28.3%	inhibition at 10 µM [21]: 0%; inhibition at 10 µM [22]: 16.4%; inhibition at 10 µM [23]: 21.3%; inhibition at 10 µM [24]: 0%; inhibition at 10 µM [25]: 18.3%; inhibition at 10 µM [26]: 48.8%; inhibition at 10 µM [27]: 2.57%; inhibition at 10 µM [28]: 54.3%; inhibition at 10 µM [29]: 63.7%
O=C(NN=Cc1ccc([N+](=O)[O-])cc1)c1ccc2[nH]c(-c3ccc(Cl)cc3)nc2c1 [Compound 4c, N′-(4-Nitrobenzylidene)-2-(4-chlorophenyl)-1H-benzimidazole-5-carbohydrazide]	80.9%	51.5%	99.3%	77.7%	95.8%	92.2%	93.4%	51%	94.6%	67%	85.4%	54.6%	74.1%	23.1%	74.9%	89.2%	78.6%	52.4%	58.3%	40.3%	GI50 [30, 31]: 3.75 µM; CC50 [30, 31]: 69.1 µM; TGI [30, 31]: 13.90 µM; inhibition at 10 µM [21]: 22.7%; inhibition at 10 µM [22]: 33.3%; inhibition at 10 µM [23]: 87.3%; inhibition at 10 µM [24]: 46.8%; inhibition at 10 µM [25]: 55.2%; inhibition at 10 µM [26]: 51%; inhibition at 10 µM [27]: 58%; inhibition at 10 µM [28]: 108%; inhibition at 10 µM [29]: 68.4%
O=C(NN=Cc1ccccc1)c1ccc2[nH]c(-c3ccc(Cl)cc3)nc2c1 [Compound 4a, N′-Benzylidene-2-(4-chlorophenyl)-1H-benzimidazole-5-carbohydrazide]	4.8%	0%	23.5%	4.35%	12.9%	1.28%	0%	1.38%	0%	1%	0%	0%	8.89%	0%	0%	13.8%	0%	0%	9.57%	0%	inhibition at 10 µM [21]: 0%; inhibition at 10 µM [22]: 0%; inhibition at 10 µM [23]: 0%; inhibition at 10 µM [24]: 0%; inhibition at 10 µM [25]: 0%; inhibition at 10 µM [26]: 11.6%; inhibition at 10 µM [27]: 3.83%; inhibition at 10 µM [28]: 18.1%; inhibition at 10 µM [29]: 15.5%
COc1ccc(C=NNC(=O)c2ccc3[nH]c(-c4ccc(Cl)cc4)nc3c2)cc1 [Compound 4g, N′-(4-Methoxybenzylidene)-2-(4-chlorophenyl)-1H-benzimidazole-5-carbohydrazide]	85.4%	80.1%	83.3%	92%	31.8%	93.5%	3.67%	70.6%	94.1%	17.4%	81%	87.5%	73.8%	60.2%	45.6%	40.8%	104%	31.5%	57.4%	64%	GI50 ([30]; MDA-MB-231, Breast Cancer): 2.42 µM; CC50 ([30]; MDA-MB-231, Breast Cancer): 18.8 µM; TGI ([30]; MDA-MB-231, Breast Cancer): 5.45 µM; inhibition at 10 µM [21]: 26.4%; inhibition at 10 µM [22]: 35.9%; inhibition at 10 µM [23]: 75.6%; inhibition at 10 µM [24]: 22.7%; inhibition at 10 µM [25]: 69.7%; inhibition at 10 µM [26]: 96.8%; inhibition at 10 µM [27]: 20.7%; inhibition at 10 µM [28]: 99.3%; inhibition at 10 µM [29]: 56.2%
CCNC(=S)NNC(=O)c1ccc2[nH]c(-c3ccc(Cl)cc3)nc2c1 [Compound 5]	14.3%	1.33%	22.1%	2.36%	90%	1.54%	0%	18.2%	1.06%	5.4%	0%	0%	1.67%	20.5%	0%	95.8%	7.83%	0.91%	12.2%	1.09%	inhibition at 10 µM [21]: 1.07%; inhibition at 10 µM [22]: 0%; inhibition at 10 µM [23]: 0%; inhibition at 10 µM [24]: 3.26%; inhibition at 10 µM [25]: 0.87%; inhibition at 10 µM [26]: 0%; inhibition at 10 µM [27]: 0%; inhibition at 10 µM [28]: 88.9%; inhibition at 10 µM [29]: 7.61%
